What was measured:
cancer cells = assay: Rapid cancer cell death phenotype; format: cell-based; settings: relative to TMZ
Excerpt: FIG. 8A-C. Rapid Cancer Cell Death Phenotype.

[1] = Blood-brain barrier permeability; settings: mice; 25 mg/kg IV; 15 minutes
Protocol: Biodistribution and Toxicity Studies. […] Brain tissue and blood were collected from each mouse and immediately acidified to prevent prodrug degradation. The concentration of each compound in the serum (FIG. 4A) and brain (FIG. 4B) were quantified by LC-MS/MS.
CD-1 IGS mice were administered compound in 5% DMSO, 10% Tween-20, and 85% SPE-PCD in sterile water (30% w/v) at 25 mg/kg via lateral tail vein injection. Fifteen minutes post injection, mice were sacrificed and blood was collected by lacerating the right auricle with iris scissors. An 18 gauge angiocatheter was inserted through the left ventricle, and all residual circulatory volume was removed by perfusing 0.9% saline solution via an analog peristaltic pump. Blood samples were immediately centrifuged at 13,000 rcf for five minutes and the supernatant collected and acidified with 8.5% aqueous H3PO4. Brains were harvested from the cranial vault, acidified with 0.3% aqueous H3PO4 and flash frozen. Homogenized brain samples were centrifuged twice at 13,000 rcf for ten minutes and supernatant and tissue debris were separated. The resultant supernatant was analyzed, along with plasma, by LC-MS/MS to determine compound concentrations.

[2] = Hepatic metabolism: stability in mouse liver microsomes; format: in vitro ADME
Brain tissue binding = format: in vitro ADME; settings: 10 uM, 1 h at 37 C in brain tissue homogenate
[3] = Syngeneic subcutaneous model; format: in vivo; settings: C57BL/6 mice, 1×10^6 cells; 50 mg/kg IV 1×/day over 5 days from day 5
Protocol: FIG. 10A-B. Syngeneic Subcutaneous Model (A, B). TABZ and TMZ in vivo: C57BL/6 mice were inoculated with 1×10^6 cells and treated xl/day over 5 days with either vehicle, TMZ, or TABZ (via IV, 50 mg/kg, starting on day 5).

[4] = cited from earlier work

| Compound | Speed of cell death induction (cancer cells) | Increase in brain distribution relative to TMZ [1] [fold] | Stability (2 h, with MLM) ([2]; percentage remaining relative to t0, mouse liver microsomes, SEM, n ≥ 2) [%] | Stability (2 h, no MLM) ([2]; percentage remaining, microsomes replaced with PBS) [%] | Brain tissue binding, insoluble fraction, tissue homogenizer (Brain tissue binding) [%] | Brain tissue binding, insoluble fraction, ultrasonication (Brain tissue binding) [%] | Brain tissue binding, soluble fraction, tissue homogenizer (Brain tissue binding) [%] | Brain tissue binding, soluble fraction, ultrasonication (Brain tissue binding) [%] | Tumor growth [3] | Half-life in vivo (human pharmacokinetics) ([4]; human patients) [h] | Cerebral spinal fluid concentration as percentage of plasma concentration ([4]; humans) |
| --- | --- | --- | --- | --- | --- | --- | --- | --- | --- | --- | --- |
| C#CCn1nnc2c(Cl)ncn2c1=O [CPZ, 8-chloro-3-(prop-2-yn-1-yl)imidazo[5,1-d][1,2,3,5]tetrazin-4(3H)-one] | induce cell death quickly relative to TMZ | > 10 |  |  |  |  |  |  |  |  |  |
| Cn1nnc2c(C(N)=O)ncn2c1=O [TMZ, temozolomide, reference compound] |  |  | 95 ± 1 | 92 ± 0.2 | 40 ± 5 | 30 ± 3 | 59 ± 5 | 66 ± 3 | exacerbation of tumor growth | 1.5 to 2 | about 20% |
